# Tests used:
# [1] = Octanol-water partition coefficient, log KOW of the compound; assay type: physicochemical; details: read-out: log K
# Rattus norvegicus = test: Anesthetic potency in Sprague-Dawley rat assessed as loss of righting reflex; assay type: functional
# [2] = biological target: T1, Gamma-aminobutyric acid receptor subunit alpha-1 (Homo sapiens, UniProt P14867+P18507+P47870); test: Activity at human GABAA alpha-1-beta-2-gamma-2s receptor expressed in HEK293 cells assessed as effect on GABA-induced current at 3 uM by whole cell patch-clamp technique; assay type: cell-based
# T1 sequence (P14867 whole entry): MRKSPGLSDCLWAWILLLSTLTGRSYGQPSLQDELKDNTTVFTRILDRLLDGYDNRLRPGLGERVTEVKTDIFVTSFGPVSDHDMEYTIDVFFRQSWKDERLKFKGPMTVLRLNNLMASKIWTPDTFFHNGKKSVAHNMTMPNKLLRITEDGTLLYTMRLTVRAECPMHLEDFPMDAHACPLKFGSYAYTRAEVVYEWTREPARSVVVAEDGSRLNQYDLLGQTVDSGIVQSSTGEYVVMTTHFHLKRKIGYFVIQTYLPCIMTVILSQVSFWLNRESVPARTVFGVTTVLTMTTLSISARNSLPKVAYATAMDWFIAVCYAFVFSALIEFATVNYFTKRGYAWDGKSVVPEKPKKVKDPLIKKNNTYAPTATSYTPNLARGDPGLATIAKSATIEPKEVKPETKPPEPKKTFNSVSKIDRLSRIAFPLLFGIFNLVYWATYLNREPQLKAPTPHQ
# [3] = Binding affinity to human serum albumin
# [4] = Chemical stability in aqueous solution assessed as hydrolysis after 4 hrs; assay type: physicochemical; details: read-out: Activity
# Rana temporaria = test: Anesthetic potency in Rana temporaria tadpoles assessed as loss of righting reflex for 60 mins; details: 1 h
smiles,measurement,setting,value
CC(c1ccccc1)n1cncc1CO (stereo unspecified),logP,[1],1.28
CC(c1ccccc1)n1cncc1C=O (stereo unspecified),logP,[1],1.77
C[C@H](c1ccccc1)n1cncc1C(=O)N=[N+]=[N-],ED50,Rattus norvegicus,1.7 mg/kg
same,EC50,[2],11 µM
same,Kd,[3],121 µM
CC(c1ccccc1)n1cncc1C(=O)N=[N+]=[N-] (stereo unspecified),logP,[1],2.71
same,degraded at 4 h,[4],10%
CCOC(=O)c1cncn1[C@H](C)c1ccccc1 [ETOMIDATE],logP,[1],2.89
same,Kd,[3],176 µM
COC(=O)c1cncn1C(C)c1ccccc1 (stereo unspecified) [METOMIDATE],logP,[1],2.28
CCOC(=O)c1cncn1[C@@H](C)c1ccccc1 [S-ETOMIDATE],EC50,Rana temporaria,36 µM

# — ChEMBL document CHEMBL1156442 (J Biol Chem, 2007)
